Test results: patent US11524966B1 (Valo Early Discovery, Inc., priority 2017, dated 2022)

Molecular target: T1, USP25 (USP25-His6, Boston Biochem E-546) (Homo sapiens, UniProt Q9UHP3)
T1 construct: His6; purchased Boston Biochem E-546
T1 sequence (Q9UHP3 1-1055): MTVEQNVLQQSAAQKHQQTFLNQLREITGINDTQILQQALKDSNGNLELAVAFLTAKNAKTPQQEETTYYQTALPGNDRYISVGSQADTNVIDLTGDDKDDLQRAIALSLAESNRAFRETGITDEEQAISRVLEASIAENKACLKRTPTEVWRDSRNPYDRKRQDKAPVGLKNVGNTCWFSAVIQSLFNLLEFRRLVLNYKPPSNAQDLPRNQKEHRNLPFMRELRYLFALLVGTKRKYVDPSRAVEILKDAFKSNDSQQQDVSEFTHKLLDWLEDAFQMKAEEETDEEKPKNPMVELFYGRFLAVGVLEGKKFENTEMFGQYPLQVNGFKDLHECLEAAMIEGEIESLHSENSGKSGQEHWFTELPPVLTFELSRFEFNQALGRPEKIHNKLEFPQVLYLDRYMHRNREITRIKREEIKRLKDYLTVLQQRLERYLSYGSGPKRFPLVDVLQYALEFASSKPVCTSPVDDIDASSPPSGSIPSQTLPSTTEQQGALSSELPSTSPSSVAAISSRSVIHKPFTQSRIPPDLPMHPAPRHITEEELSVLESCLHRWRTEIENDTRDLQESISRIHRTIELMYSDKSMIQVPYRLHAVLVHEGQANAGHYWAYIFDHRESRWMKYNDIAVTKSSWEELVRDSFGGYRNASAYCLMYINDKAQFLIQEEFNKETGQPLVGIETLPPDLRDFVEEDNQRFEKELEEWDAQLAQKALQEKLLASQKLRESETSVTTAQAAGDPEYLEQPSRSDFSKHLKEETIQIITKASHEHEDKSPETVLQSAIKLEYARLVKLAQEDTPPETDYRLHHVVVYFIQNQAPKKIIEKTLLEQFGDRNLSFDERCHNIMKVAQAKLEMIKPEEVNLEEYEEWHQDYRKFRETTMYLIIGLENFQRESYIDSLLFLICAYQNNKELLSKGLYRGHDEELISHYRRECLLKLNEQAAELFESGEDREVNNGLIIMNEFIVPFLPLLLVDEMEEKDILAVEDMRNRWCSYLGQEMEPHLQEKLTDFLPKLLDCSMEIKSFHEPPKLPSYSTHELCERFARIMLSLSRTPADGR
Assay: Ubiquitin-Rhodamine 110 Assay for USP25 Activity, Example A-2
Format: biochemical
Settings: Ubiquitin-Rhodamine 110 assay, Example A-2; read-out: USP25 A-2 IC50 range
Procedure, shortened: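 Cleavage of ubiquitin-rhodamine 110 (25 nM, well below Km) by His-tagged USP25 at 75 pM is measured fluorimetrically after 45 min at room temperature and acid quench. Inhibitors are preincubated with enzyme for 30 minutes. IC50 values come from four-parameter logistic curve fitting.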

SMILES | IC50 [µM]
CO[C@H]1CN(c2cc3c(cc2F)C[C@@H](NC(=O)c2sc4nc(C)ccc4c2N)CO3)C[C@@H]1N [Example 94, 3-amino-N-[(3R)-7-[(3S,4S)-3-amino-4-methoxypyrrolidin-1-yl]-6-fluoro-3,4-dihydro-2H-1-benzopyran-3-yl]-6-methylthieno[2,3-b]pyridine-2-carboxamide] | 0.2 to 2
Cc1ccc2c(N)c(C(=O)N[C@H]3COc4c(C#N)c(N5CC6CCC(C5)N6)cc(F)c4C3)sc2n1 [Example 95, 3-amino-N-[(3R)-8-cyano-7-{3,8-diazabicyclo[3.2.1]octan-3-yl}-5-fluoro-3,4-dihydro-2H-1-benzopyran-3-yl]-6-methylthieno[2,3-b]pyridine-2-carboxamide] | 0.2 to 2
Cc1ccc2c(N)c(C(=O)N[C@H]3COc4c(C#N)c(N5CC6CNCC(C5)O6)cc(F)c4C3)sc2n1 [Example 96, 3-amino-N-[(3R)-8-cyano-5-fluoro-7-{9-oxa-3,7-diazabicyclo[3.3.1]nonan-3-yl}-3,4-dihydro-2H-1-benzopyran-3-yl]-6-methylthieno[2,3-b]pyridine-2-carboxamide] | 0.05 to 0.2
Cc1cnc2c(N)c(C(=O)N[C@H]3COc4cc(N5CC6CCC(C5)N6)c(F)c(F)c4C3)sc2n1 [Example 97, 7-amino-N-[(3R)-7-{3,8-diazabicyclo[3.2.1]octan-3-yl]-5,6-difluoro-3,4-dihydro-2H-1-benzopyran-3-yl]-3-methylthieno[2,3-b]pyrazine-6-carboxamide] | 0.001 to 0.05
Cc1nc2sc(C(=O)N[C@H]3COc4c(F)c(N5CC6CCC(C5)N6)cc(F)c4C3)c(N)c2s1 [Example 98, 6-amino-N-[(3R)-7-{3,8-diazabicyclo[3.2.1]octan-3-yl}-5,8-difluoro-3,4-dihydro-2H-1-benzopyran-3-yl]-2-methylthieno[2,3-d][1, 3]thiazole-5-carboxamide] | 0.05 to 0.2
Cc1ccc2c(N)c(C(=O)N[C@H]3CCc4c(ccc(N5CC6CNCC(C5)O6)c4F)C3)sc2n1 [Example 99, 3-amino-N-[(2S)-5-fluoro-6-{9-oxa-3,7-diazabicyclo[3.3.1]nonan-3-yl}-1,2,3,4-tetrahydronaphthalen-2-yl]-6-methylthieno[2,3-b]pyridine-2-carboxamide] | 0.001 to 0.05
Cc1ccc2c(N)c(C(=O)N[C@@H]3CCc4c(ccc(N5CC6CNCC(C5)O6)c4F)C3)sc2n1 [Example 100, 3-amino-N-[(2R)-5-fluoro-6-{9-oxa-3,7-diazabicyclo[3.3.1]nonan-3-yl}-1,2,3,4-tetrahydronaphthalen-2-yl]-6-methylthieno[2,3-b]pyridine-2-carboxamide] | > 2
Cc1ccc2c(N)c(C(=O)N[C@H]3CCc4cc(N5CC6CNCC(C5)O6)c(F)cc4C3)sc2n1 [Example 101, 3-amino-N-[(2S)-7-fluoro-6-{9-oxa-3,7-diazabicyclo[3.3.1]nonan-3-yl}-1,2,3,4-tetrahydronaphthalen-2-yl]-6-methylthieno[2,3-b]pyridine-2-carboxamide] | 0.2 to 2
Cc1ccc2c(N)c(C(=O)N[C@H]3CCc4c(ccc(N5CC6CNCC(C5)O6)c4C#N)C3)sc2n1 [Example 102, 3-amino-N-[(2S)-5-cyano-6-{9-oxa-3,7-diazabicyclo[3.3.1]nonan-3-yl}-1,2,3,4-tetrahydronaphthalen-2-yl]-6-methylthieno[2,3-b]pyridine-2-carboxamide] | 0.05 to 0.2
Cc1ccc2c(N)c(C(=O)N[C@H]3COc4c(ccc(N5CC6CCC(C5)N6)c4F)C3)sc2n1 [Example 103, 3-amino-N-[(3R)-7-{3,8-diazabicyclo[3.2.1]octan-3-yl}-8-fluoro-3,4-dihydro-2H-1-benzopyran-3-yl]-6-methylthieno[2,3-b]pyridine-2-carboxamide] | 0.05 to 0.2
Cc1ccc2c(N)c(C(=O)N[C@H]3COc4cc(N5CC6CCC(C5)N6)c(F)cc4C3)sc2n1 [Example 104, 3-amino-N-[(3R)-7-{3,8-diazabicyclo[3.2.1]octan-3-yl]-6-fluoro-3,4-dihydro-2H-1-benzopyran-3-yl]-6-methylthieno[2,3-b]pyridine-2-carboxamide] | 0.001 to 0.05
Cc1ccc2c(N)c(C(=O)N[C@H]3COc4c(ccc(N5CC6CNCC(C5)O6)c4F)C3)sc2n1 [Example 105, 3-amino-N-[(3R)-8-fluoro-7-{9-oxa-3,7-diazabicyclo[3.3.1]nonan-3-yl}-3,4-dihydro-2H-1-benzopyran-3-yl]-6-methylthieno[2,3-b]pyridine-2-carboxamide] | 0.001 to 0.05
Cc1ccc2c(N)c(C(=O)N[C@H]3COc4cc(N5CC6CNCC(C5)O6)c(F)cc4C3)sc2n1 [Example 106, 3-amino-N-[(3R)-6-fluoro-7-{9-oxa-3,7-diazabicyclo[3.3.1]nonan-3-yl}-3,4-dihydro-2H-1-benzopyran-3-yl]-6-methylthieno[2,3-b]pyridine-2-carboxamide] | 0.05 to 0.2
Cc1cnc2c(N)c(C(=O)N[C@H]3COc4c(F)c(N5CC6CCC(C5)N6)cc(F)c4C3)sc2n1 [Example 107, 7-amino-N-[(3R)-7-{3,8-diazabicyclo[3.2.1]octan-3-yl}-5,8-difluoro-3,4-dihydro-2H-1-benzopyran-3-yl]-3-methylthieno[2,3-b]pyrazine-6-carboxamide] | 0.001 to 0.05
Cc1nc2sc(C(=O)N[C@H]3COc4cc(N5CC6CCC(C5)N6)c(F)c(F)c4C3)c(N)c2s1 [Example 108, 6-amino-N-[(3R)-7-{3,8-diazabicyclo[3.2.1]octan-3-yl}-5,6-difluoro-3,4-dihydro-2H-1-benzopyran-3-yl]-2-methylthieno[2,3-d][1,3]thiazole-5-carboxamide] | 0.05 to 0.2
Cc1ccc2c(N)c(C(=O)N[C@H]3CCc4cc(N5CC6CNCC(C5)O6)c(C#N)cc4C3)sc2n1 [Example 109, 3-amino-N-[(2S)-7-cyano-6-{9-oxa-3,7-diazabicyclo[3.3.1]nonan-3-yl}-1,2,3,4-tetrahydronaphthalen-2-yl]-6-methylthieno[2,3-b]pyridine-2-carboxamide] | 0.2 to 2
Cc1ccc2c(N)c(C(=O)N[C@H]3COc4c(F)c(N5C[C@@H]6C[C@H]5CN6)cc(F)c4C3)sc2n1 [Example 110, 3-amino-N-[(3R)-7-[(1S,4S)-2,5-diazabicyclo[2.2.1]heptan-2-yl]-5,8-difluoro-3,4-dihydro-2H-1-benzopyran-3-yl]-6-methylthieno[2,3-b]pyridine-2-carboxamide] | 0.05 to 0.2
Cc1ccc2c(N)c(C(=O)N[C@H]3COc4c(F)c(N5C[C@H]6C[C@@H]5CN6)cc(F)c4C3)sc2n1 [Example 111, 3-amino-N-[(3R)-7-[(1R,4R)-2,5-diazabicyclo[2.2.1]heptan-2-yl]-5,8-difluoro-3,4-dihydro-2H-1-benzopyran-3-yl]-6-methylthieno[2,3-b]pyridine-2-carboxamide] | 0.05 to 0.2
Cc1ccc2c(N)c(C(=O)N[C@H]3COc4cc(N5C[C@@H]6C[C@H]5CN6)c(F)c(F)c4C3)sc2n1 [Example 112, 3-amino-N-[(3R)-7-[(1S,4S)-2,5-diazabicyclo[2.2.1]heptan-2-yl]-5,6-difluoro-3,4-dihydro-2H-1-benzopyran-3-yl]-6-methylthieno[2,3-b]pyridine-2-carboxamide] | 0.2 to 2
Cc1ccc2c(N)c(C(=O)N[C@H]3COc4nc(N5CC6CNCC(C5)C6(F)F)ccc4C3)sc2n1 [Example 113, 3-amino-N-[(3R)-7-{9 9-difluoro-3,7-diazabicyclo[3.3.1]nonan-3-yl}-2H b,3H,4H-pyrano[2,3-b]pyridin-3-yl]-6-methylthieno[2,3-b]pyridine-2-carboxamide] | 0.2 to 2
CCO[C@H]1CN(c2ccc3c(c2)OC[C@H](NC(=O)c2sc4nc(C)ccc4c2N)C3)C[C@@H]1N [Example 115, 3-amino-N-[(3R)-7-[(3S,4S)-3-amino-4-ethoxypyrrolidin-1-yl]-3,4-dihydro-2H-1-benzopyran-3-yl]-6-methylthieno[2,3-b]pyridine-2-carboxamide] | 0.2 to 2
CO[C@H]1CN(c2ccc3c(c2)CC[C@H](NC(=O)c2sc4nc(C)ccc4c2N)C3)C[C@@H]1N [Example 116, 3-amino-N-[(2S)-6-[(3S,4S)-3-amino-4-methoxypyrrolidin-1-yl}-1,2,3,4-tetrahydronaphthalen-2-yl]-6-methylthieno[2,3-b]pyridine-2-carboxamide] | 0.2 to 2
